Experimental data: patent USRE47475E1, “Selective agents for pain suppression” (WiSys Technology Foundation, Inc., priority 2002, dated 2019)

Columns and labels:
[1] = system: motor coordination of mice; assay: rotarod test (motor impairment); type: in vivo; details: HZ166 16 and 48 mg/kg, gabapentin 10 and 30 mg/kg, i.p., 60 min after treatment
Experimental: Motor impairment: A possible impairment of motor function was analyzed in the rotarod test. Mice were trained on the rotarod (diameter 3 cm, 2 rpm) for 2 days. Animals capable of remaining on the rotarod in the absence of treatment for at least 2 min were selected for drug testing. On the test day, the latency to fall off the rod was recorded before and 60 minutes after treatment with vehicle, HZ166 or gabapentin.

[2] = system: inflammatory hyperalgesia induced by zymosan A; assay: zymosan A model of inflammatory pain, mechanical sensitization; type: in vivo, mice; details: 16 mg/kg i.p., 48 hours after zymosan A; n=6
Experimental: Inflammatory pain is assessed in the zymosan A model. See Hargreaves, K., Dubner, R., Brown, F., Flores, C. & Joris, J. A new and sensitive method for measuring thermal nociception in cutaneous hyperalgesia. Pain 32, 77-88 (1988). Inflammatory pain is induced by subcutaneous injection of zymosan A (0.06 mg in mice; 1 mg in rats) into one hindpaw. In mice, 0.06 mg of zymosan A suspended in […] of 0.9% NaCl is injected subcutaneously into the plantar side of the left hindpaw. The model is also used in rats, but 1 mg of zymosan A is used. Heat hyperalgesia is assessed 24 h and 6 h after induction of inflammation in mice and rats, respectively.
Pain Studies—Inflammatory pain: Inflammatory pain was studied in the zymosan A model (Meller and Gebhart, 1997). 0.06 mg zymosan A (Sigma Chemicals) suspended in 20 μl 0.9% NaCl was injected subcutaneously into the plantar side of the left hindpaw. Mechanical sensitization was assessed 48 hours after induction of inflammation.
Pain Studies—Mechanical sensitization: Mechanical sensitivity was assessed with dynamic von Frey filaments (IITC, Woodland Hills, Calif.). […]
Statistical Analysis: For all different doses and vehicle, baseline paw withdrawal thresholds/latencies on day 7 after nerve ligation or on day 2 after zymosan A injection were subtracted from all later withdrawal thresholds and the area under the curve (AUC) was calculated. […]

[3] = system: neuropathic pain after CCI of the sciatic nerve; assay: chronic constriction injury (CCI) model, mechanical sensitization (von Frey filaments); type: in vivo, mice
Experimental: (§1) In addition, the pro- or antinociceptive effects of the compounds of the present invention are analyzed in the chronic constriction injury (CCI) model. The GABAA receptor subunit selective test compounds of the present invention are analysed in the CCI model in 7-8-week-old C57BL/6 mice. See Bennett, G. J. & Xie, Y. K. A peripheral mononeuropathy in rat that produces disorders of pain sensation like those seen in man. […] Seven to eight week old mice are anesthetized with isofluran. Unilateral constriction injury of the left sciatic nerve just proximal to the trifurcation is performed with three loose ligatures. In sham-operated animals the sciatic nerve is exposed and the connective tissue is freed, but no ligatures are applied. […] Heat hyperalgesia, cold allodynia and mechanical sensitization are assessed 7-9 days after surgery. Mechanical sensitivity is assessed with electronic von Frey filaments (IITC).
Pain studies—Neuropathic pain: HZ166 and gabapentin were analyzed in the chronic constriction injury (CCI) model. Unilateral constriction injury of the left sciatic nerve just proximal to the trifurcation was performed as described previously (Bennett and Xie, 1988). Anesthesia was induced and maintained by 2% isoflurane, combined with oxygen (30%). The sciatic nerve was exposed at the mid-thigh level proximal to the sciatic trifurcation by blunt dissection through the biceps femoris muscle. […] of nerve were freed of adhering tissue and three chromic gut ligatures (4/0) (Ethicon) were loosely put around the nerve with about 1 mm spacing. The ligatures were tied until they elicited a brief twitch in the hindlimb. The surgical wound was closed in layers. Heat hyperalgesia and mechanical sensitization were assessed 7-16 days after surgery.
Pain Studies—Mechanical sensitization: Mechanical sensitivity was assessed with dynamic von Frey filaments (IITC, Woodland Hills, Calif.). 4-5 measurements were made for each time point and animal and averaged. Measurements of paw withdrawal thresholds of the injured paw and of the contralateral paw were made alternately.
Statistical Analysis: For all different doses and vehicle, baseline paw withdrawal thresholds/latencies on day 7 after nerve ligation or on day 2 after zymosan A injection were subtracted from all later withdrawal thresholds and the area under the curve (AUC) was calculated. Drug effects were expressed as percent maximum possible effect (MPE) calculated from comparisons of paw withdrawal latencies or thresholds obtained prior to surgery or inflammation and before and after drug treatment. […] Unless otherwise indicated, statistical comparisons were made with one-way analysis of variance (ANOVA) followed by Scheffe's post hoc test. P values<0.05 were considered significant.

rhesus monkeys = assay: conflict model of anxiolytic activity which also measures sedation; type: in vivo
Experimental: The data in FIGS. 21A-21F reflect the ability of the compounds or drugs to exert an anxioyic effect in rhesus monkeys (J. Rowlett, J. M. Cook et al., unpublished results) when given intravenously in propylene glycol/water solution. This is the conflict model of anxiolytic activity which also measures sedation. […] In FIG. 21B, SH-053-2′F (JY-XHE-053) is anxiolytic at a dose of greater than 0.13 mg/kg, but exerts only some slight sedation at doses greater than 1.2 mg/kg (responses decrease). In FIG. 21C it is clear the S-enantiomer of SH-053-2′F—S—CH3 is anxiolytic with no sedation up to 10-18 mg/kg, which is the highest dose tested.

[4] = system: thermal hyperalgesia after CCI of the sciatic nerve; assay: chronic constriction injury (CCI) model, heat hyperalgesia (plantar test); type: in vivo, mice; details: 16 mg/kg i.p.
Experimental: as §1, with “ligatures.” for “ligatures. In sham-operated animals the sciatic nerve is exposed and the connective tissue is freed, but no ligatures are applied.”
Heat hyperalgesia is assessed by measuring paw withdrawal latencies on exposure to a defined radiant heat stimulus are measured with a commercially available apparatus (Plantar Test; Ugo Basile). […]
Pain studies—Neuropathic pain: HZ166 and gabapentin were analyzed in the chronic constriction injury (CCI) model. […] Heat hyperalgesia and mechanical sensitization were assessed 7-16 days after surgery.
Pain Studies—Heat hyperalgesia: Paw withdrawal latencies upon exposure to a defined radiant heat stimulus were measured using a commercially available apparatus (Plantar Test, Ugo Basile, Comerio, Italy). […]

seizures = details: Rivas et al., 2009, cited from earlier work

Structure (SMILES): C#Cc1ccc2c(c1)C(c1ccccn1)=NCc1c(C(=O)OCC)ncn1-2 [HZ-166, 8-Acetylenyl-6-pyridin-2-yl-4H-benzo[f]imidazo[1,5-a][1,4]diazepine-3-carboxylic acid ethyl ester]
- interfered with rotarod performance [1]: Neither
- AUC of mechanical PWT [2]: 1.55 ± 0.21 g·h
- analgesia, mechanical sensitivity (von Frey) in CCI model ([3]; 48 mg/kg, 160 mg/kg and 480 mg/kg i.p.): significant analgesia
- AUC of mechanical PWT, HZ166 followed by vehicle ([3]; HZ166 16 mg/kg i.p., vehicle 45 min later, n=6): 1.90 ± 0.29 g·h
- ED50 ([3]; Mus musculus, ip, 168 h, i.p., day 7 after CCI surgery, Hill fit, read-out: ED50, increase of ipsilateral PWT): 3.83 ± 0.94 mg/kg
- reversal of mechanical hypersensitivity ([3]; i.p., CCI model): dose-dependent reversal
- PWTs of the contralateral paw ([3]; i.p., day 7 after CCI surgery): not affected
- time of maximum effect on ipsilateral PWT after injection ([3]; i.p., day 7 after CCI surgery): about 1 h
- doses at which saturation of the antihyperalgesic effect was reached ([3]; i.p., mechanical PWT): ≥ 160 mg/kg
- doses with statistically significant antihyperalgesic effects ([3]; i.p., mechanical PWT): ≥ 16 mg/kg
- analgesic effects in the chronic constriction injury model of neuropathic pain ([3]; mouse, in vivo): analgesic effects
- no sedation up to dose (rhesus monkeys; conflict model): up to 10 mg/kg
- sedative activity (conflict model) (rhesus monkeys; intravenously): no sedative activity
- anxiolytic effect (conflict model) (rhesus monkeys; intravenously in propylene glycol/water): anxiolytic
- time of peak effect on PWLs after administration [4]: 1 h
- AUC of PWL, injured paw ([4]; 7 days after surgery, n=6): 4.33±1.95 s*h
- toxicity (seizures): minimal
- anticonvulsive activity (seizures; at non-sedative doses): good anticonvulsive activity
